From paper PMC13198257, “An aerosolized dual-action autotaxin inhibitor-PPARγ agonist for the treatment of pulmonary fibrosis” (Cell Reports Medicine, 2026)

Test system: lung gene expression
Experiment: RNA sequencing of lung tissue (BLM/EL244 vs BLM)
Type: in vivo, mouse
Settings: BLM/EL244 vs BLM, lung tissue
Method: RNA quality was assessed using an Agilent TapeStation 4150 with the High Sensitivity […] ScreenTape (Agilent), according to the manufacturer’s protocols. For library preparation, the QuantSeq 3’mRNA-Seq Library Prep Kit (Lexogen) was used according to manufacturer’s instructions. Briefly, 500 ng of RNA from each sample was used for first-strand synthesis, followed by RNA template removal, and second-strand synthesis initiated by random primers. In-line barcodes were introduced at this step, and this was followed by magnetic bead-based purification. The resulting libraries were amplified for 15 cycles and re-purified, with quantity and quality assessed on a Qubit 4 Fluorometer with the Invitrogen Qubit dsDNA HS Assay and an Agilent Tapestation 4150 with the High Sensitivity D1000 assay kit, respectively. The quantified libraries were pooled equimolarly; 50ng of total library mix was used for Adapter Conversion PCR Amplification using the Universal Library Conversion Kit (App-A), Version: V1.0 (MGI Tech Co., Ltd.), according to the manufacturer’s instructions.
The quantity and quality of the purified adapter conversion PCR (AC-PCR) product were evaluated on a Qubit 4 Fluorometer with the Invitrogen Qubit dsDNA HS Assay and on an Agilent Tapestation 4150 with the High Sensitivity D1000 assay kit, respectively. This was followed by DNA denaturation, Single-Strand Circularisation, Enzymatic Digestion, Enzymatic Digestion Product Cleanup and Quality Control steps on 1 pmol of AC-PCR product, according to the Universal Library Conversion Kit (App-A) User Manual (Version: A3).
Finally, 60 fmol of ssCirDNA were used for DNB preparation and sequencing on a DNBSEQ-G400 platform at the BSRC Alexander Fleming Genomics Facility, using a G400 App-A FCS SE100 High-throughput Sequencing Set (MGI Tech Co., Ltd.), according to the manufacturer’s instructions.
Alignment of the FASTQ files was performed against the mouse genome build mm10 using a custom Bash script.[143] Read counting on the 3′ UTRs and differential expression analysis were conducted using the metaseqR2 bioconductor package.[144] Genes corresponding to the following biotypes were excluded: polymorphic_pseudogene, processed_transcript, pseudogene, IG_V_pseudogene, misc_RNA, IG_C_gene, IG_J_gene, IG_D_gene, IG_LV_gene, TR_V_gene, TR_V_pseudogene, TEC, and processed_pseudogene. Gene counts were normalized with DESEQ[145] through metaseqR2. Genes with more than 10 counts in at least 50% of the samples were kept for further processing. For differential expression analysis, the PANDORA algorithm[146] was used to estimate a meta p-value integrating the results from the DESEQ, DESEQ2,[147] edgeR,[148] limma,[149] NBPSeq,[150] and NOISeq[151] algorithms. All additional parameters were set to default values.
Pathway enrichment analysis was performed for the Gene Ontology Biological process (BP) and Molecular Function (MF) terms through GeneCodis 4.[152] The volcano plots, scatterplots, Venn diagrams, and dot plots were generated using the ggplot2 Bioconductor package.

O=C1NC(=O)C(Cc2ccc(OCCC3CCN(C(=O)OCc4cc(Cl)cc(Cl)c4)CC3)cc2)S1 (stereo not shown) [EL244, 3,5-dichlorobenzyl 4-(2-(4-((2,4-dioxothiazolidin-5-yl)methyl)phenoxy)ethyl)piperidine-1-carboxylate]
1810020O05Rik log2 nFC: 1.58 | 1810020O05Rik nFC: 3.00 | 2410004I01Rik log2 nFC: 1.80 | 2410004I01Rik nFC: 3.47 | 9130230L23Rik log2 nFC: 1.34 | 9130230L23Rik nFC: 2.53 | 9330159F19Rik log2 nFC: 1.78 | 9330159F19Rik nFC: 3.43 | 9530026P05Rik log2 nFC: 3.17 | 9530026P05Rik nFC: 9.00 | A3galt2 log2 nFC: 2.32 | A3galt2 nFC: 5.00 | Acaa1b log2 nFC: 1.43 | Acaa1b nFC: 2.69 | Acot1 log2 nFC: 1.08 | Acot1 nFC: 2.11 | Acoxl log2 nFC: 1.23 | Acoxl nFC: 2.35 | Actc1 log2 nFC: 1.28 | Actc1 nFC: 2.42 | Adam3 log2 nFC: 1.67 | Adam3 nFC: 3.18 | Alas2 log2 nFC: 1.58 | Alas2 nFC: 2.99 | Ankrd63 log2 nFC: 1.34 | Ankrd63 nFC: 2.54 | Aqp9 log2 nFC: 1.66 | Aqp9 nFC: 3.15 | Arhgap28 log2 nFC: 1.14 | Arhgap28 nFC: 2.21 | Arl4d log2 nFC: 1.15 | Arl4d nFC: 2.23 | Arrdc2 log2 nFC: 1.24 | Arrdc2 nFC: 2.36 | Asgr1 log2 nFC: 1.80 | Asgr1 nFC: 3.49 | Baiap3 log2 nFC: 1.24 | Baiap3 nFC: 2.36 | Bbof1 log2 nFC: 1.11 | Bbof1 nFC: 2.15 | Bex2 log2 nFC: 1.46 | Bex2 nFC: 2.76 | Bpifa1 log2 nFC: 1.12 | Bpifa1 nFC: 2.18 | C130080G10Rik log2 nFC: 3.58 | C130080G10Rik nFC: 12.00 | Car3 log2 nFC: 1.57 | Car3 nFC: 2.96 | Casq2 log2 nFC: 2.36 | Casq2 nFC: 5.15 | Cbs log2 nFC: 1.38 | Cbs nFC: 2.61 | Ccdc81 log2 nFC: 1.15 | Ccdc81 nFC: 2.23 | Cd300lg log2 nFC: 1.18 | Cd300lg nFC: 2.27 | Chia1 log2 nFC: 1.16 | Chia1 nFC: 2.24 | Chrdl1 log2 nFC: 1.39 | Chrdl1 nFC: 2.62 | Cidec log2 nFC: 1.57 | Cidec nFC: 2.96 | Ckm log2 nFC: 2.32 | Ckm nFC: 5.00 | Ckmt2 log2 nFC: 2.73 | Ckmt2 nFC: 6.63 | Colq log2 nFC: 1.81 | Colq nFC: 3.52 | Cox6a2 log2 nFC: 1.42 | Cox6a2 nFC: 2.68 | Crtc2 log2 nFC: 1.47 | Crtc2 nFC: 2.76 | Csf3r log2 nFC: 1.69 | Csf3r nFC: 3.22 | Csrp3 log2 nFC: 2.07 | Csrp3 nFC: 4.19 | Cst8 log2 nFC: 1.41 | Cst8 nFC: 2.66 | Cxcl5 log2 nFC: 1.80 | Cxcl5 nFC: 3.49 | Cxcr2 log2 nFC: 1.19 | Cxcr2 nFC: 2.28 | Cyp2a5 log2 nFC: 1.66 | Cyp2a5 nFC: 3.15 | Cyp4b1 log2 nFC: 1.18 | Cyp4b1 nFC: 2.26 | Cytl1 log2 nFC: 1.67 | Cytl1 nFC: 3.18 | D630024D03Rik log2 nFC: 1.60 | D630024D03Rik nFC: 3.03 | Dpysl5 log2 nFC: 1.90 | Dpysl5 nFC: 3.73 | Ear1 log2 nFC: 1.11 | Ear1 nFC: 2.16 | Eml5 log2 nFC: 1.41 | Eml5 nFC: 2.65 | Esm1 log2 nFC: 1.28 | Esm1 nFC: 2.43 | Fabp12 log2 nFC: 1.43 | Fabp12 nFC: 2.69 | Faim2 log2 nFC: 2.03 | Faim2 nFC: 4.10 | Fam71f2 log2 nFC: 1.96 | Fam71f2 nFC: 3.88 | Fosb log2 nFC: 2.38 | Fosb nFC: 5.20 | Ggt1 log2 nFC: 1.91 | Ggt1 nFC: 3.77 | Gm867 log2 nFC: 2.18 | Gm867 nFC: 4.53 | Gm4956 log2 nFC: 1.08 | Gm4956 nFC: 2.12 | Gm9780 log2 nFC: 2.06 | Gm9780 nFC: 4.18 | Gm14964 log2 nFC: 1.87 | Gm14964 nFC: 3.65 | Gm20186 log2 nFC: 1.31 | Gm20186 nFC: 2.48 | Gm42722 log2 nFC: 1.79 | Gm42722 nFC: 3.46 | Gm49353 log2 nFC: 2.21 | Gm49353 nFC: 4.62 | Gnmt log2 nFC: 1.14 | Gnmt nFC: 2.20 | Gpat3 log2 nFC: 1.34 | Gpat3 nFC: 2.54 | Gria1 log2 nFC: 1.61 | Gria1 nFC: 3.05 | Gsta3 log2 nFC: 1.10 | Gsta3 nFC: 2.15 | Gzma log2 nFC: 1.70 | Gzma nFC: 3.26 | Hba-a1 log2 nFC: 1.21 | Hba-a1 nFC: 2.32 | Hba-a2 log2 nFC: 1.14 | Hba-a2 nFC: 2.21 | Hbb-bs log2 nFC: 1.10 | Hbb-bs nFC: 2.15 | Hbb-bt log2 nFC: 1.09 | Hbb-bt nFC: 2.13 | Hhatl log2 nFC: 2.05 | Hhatl nFC: 4.14 | Hpgd log2 nFC: 1.63 | Hpgd nFC: 3.10 | Igfbp3 log2 nFC: 1.75 | Igfbp3 nFC: 3.37 | Igfbp6 log2 nFC: 1.68 | Igfbp6 nFC: 3.21 | Inmt log2 nFC: 1.34 | Inmt nFC: 2.54 | Itga2b log2 nFC: 1.10 | Itga2b nFC: 2.15 | Kcne2 log2 nFC: 1.32 | Kcne2 nFC: 2.50 | Klf15 log2 nFC: 1.42 | Klf15 nFC: 2.67 | Klrc1 log2 nFC: 1.38 | Klrc1 nFC: 2.61 | Krt79 log2 nFC: 1.75 | Krt79 nFC: 3.36 | Ldb3 log2 nFC: 1.52 | Ldb3 nFC: 2.86 | Lrat log2 nFC: 1.15 | Lrat nFC: 2.22 | Mb log2 nFC: 2.27 | Mb nFC: 4.81 | Mir6979 log2 nFC: 1.18 | Mir6979 nFC: 2.26 | Mmp9 log2 nFC: 1.20 | Mmp9 nFC: 2.30 | Mpp3 log2 nFC: 1.65 | Mpp3 nFC: 3.14 | Ms4a4d log2 nFC: 1.15 | Ms4a4d nFC: 2.21 | Mybpc3 log2 nFC: 2.06 | Mybpc3 nFC: 4.18 | Mybphl log2 nFC: 2.33 | Mybphl nFC: 5.04 | Myh6 log2 nFC: 2.62 | Myh6 nFC: 6.14 | Myh7 log2 nFC: 2.22 | Myh7 nFC: 4.68 | Myl4 log2 nFC: 1.94 | Myl4 nFC: 3.85 | Myl7 log2 nFC: 1.90 | Myl7 nFC: 3.73 | Mylk3 log2 nFC: 2.03 | Mylk3 nFC: 4.08 | Myom2 log2 nFC: 1.87 | Myom2 nFC: 3.67 | Ngp log2 nFC: 2.72 | Ngp nFC: 6.57 | Nhlrc1 log2 nFC: 1.34 | Nhlrc1 nFC: 2.53 | Npr3 log2 nFC: 1.53 | Npr3 nFC: 2.88 | Nr4a3 log2 nFC: 1.63 | Nr4a3 nFC: 3.09 | Nrn1 log2 nFC: 1.84 | Nrn1 nFC: 3.59 | Numb log2 nFC: 1.49 | Numb nFC: 2.80 | Pdk4 log2 nFC: 1.64 | Pdk4 nFC: 3.11 | Phf24 log2 nFC: 1.57 | Phf24 nFC: 2.97 | Pln log2 nFC: 2.30 | Pln nFC: 4.92 | Pmvk log2 nFC: 1.09 | Pmvk nFC: 2.13 | Ppbp log2 nFC: 1.09 | Ppbp nFC: 2.13 | Ppp4r4 log2 nFC: 1.26 | Ppp4r4 nFC: 2.40 | Pram1 log2 nFC: 1.64 | Pram1 nFC: 3.12 | Prf1 log2 nFC: 1.34 | Prf1 nFC: 2.53 | Prmt8 log2 nFC: 1.27 | Prmt8 nFC: 2.41 | Pwwp3b log2 nFC: 1.22 | Pwwp3b nFC: 2.33 | Rab44 log2 nFC: 1.61 | Rab44 nFC: 3.05 | Rassf10 log2 nFC: 1.19 | Rassf10 nFC: 2.28 | Rbfox3 log2 nFC: 1.26 | Rbfox3 nFC: 2.40 | Rbm24 log2 nFC: 1.20
